Measured values taken from PubChem BioAssay AID2060905 (Molecular Pharmacology Branch, DTP, NCI, 2025).

System: 282377-053-R-J1-PDC complex spheroid viability
Test: Anticancer human tumor 282377-053-R-J1-PDC patient-derived colon adenocarcinoma cell line growth inhibition [RAS]
Settings: for viability, T/C: stronger effect = lower value
Summary of the method: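 Multi-cell-type spheroids: tumor cells plus HUVEC endothelial cells and mesenchymal stem cells. RAS-pathway inhibitors were combined with targeted agents, each dosed in half-log steps down from clinical Cmax, or from 10 microM when Cmax was unknown.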

[1] = curve of first compound, second compound 0.0316 µM
[2] = curve of first compound, second compound 0.1 µM
[3] = curve of first compound, second compound 0.316 µM
[4] = curve of first compound, second compound 1 µM
[5] = second compound 0.0316 µM, first compound 0.00316 µM
[6] = second compound 0.0316 µM, first compound 0.01 µM
[7] = second compound 0.0316 µM, first compound 0.0316 µM
[8] = second compound 0.0316 µM, first compound 0.1 µM
[9] = second compound 0.0316 µM, first compound 0.316 µM
[10] = second compound 0.0316 µM, first compound 1 µM
[11] = second compound 0.1 µM, first compound 0.00316 µM
[12] = second compound 0.1 µM, first compound 0.01 µM
[13] = second compound 0.1 µM, first compound 0.0316 µM
[14] = second compound 0.1 µM, first compound 0.1 µM
[15] = second compound 0.1 µM, first compound 0.316 µM
[16] = second compound 0.1 µM, first compound 1 µM
[17] = second compound 0.316 µM, first compound 0.00316 µM
[18] = second compound 0.316 µM, first compound 0.01 µM
[19] = second compound 0.316 µM, first compound 0.0316 µM
[20] = second compound 0.316 µM, first compound 0.1 µM
[21] = second compound 0.316 µM, first compound 0.316 µM
[22] = second compound 0.316 µM, first compound 1 µM
[23] = second compound 1 µM, first compound 0.00316 µM
[24] = second compound 1 µM, first compound 0.01 µM
[25] = second compound 1 µM, first compound 0.0316 µM
[26] = second compound 1 µM, first compound 0.1 µM
[27] = second compound 1 µM, first compound 0.316 µM
[28] = second compound 1 µM, first compound 1 µM
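Also: spheroids exposed to agents for seven days before readout.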
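For viability, T/C in this document: luminescence viability as percent of DMSO vehicle control wells.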

Molecule O=C(c1ccc(F)c(F)c1Nc1ccc(I)cc1F)N1CC(O)([C@@H]2CCCCN2)C1 + C#Cc1c(F)ccc2cc(O)cc(-c3ncc4c(N5CC6CCC(C5)N6)nc(OCC56CCCN5CC(F)C6)nc4c3F)c12 has an IC50 [1] of 80 nM, an IC50 [2] of 63.5 nM and an IC50 [3] of 50.4 nM. The IC50 [4] was 45.5 nM, the IC50 (curve of first compound, second compound 3.16 µM) was 42.5 nM and the IC50 (curve of first compound, second compound 10 µM) was 24.9 nM. The viability, T/C [5] was 92%, the viability, T/C [6] was 73% and the viability, T/C [7] was 80.9%. It also gave a viability, T/C [8] of 42.3%, a viability, T/C [9] of 27.6% and a viability, T/C [10] of 19.7%. For the same molecule, the viability, T/C [11] was 86.3%, the viability, T/C [12] was 75.2% and the viability, T/C [13] was 62.5%. It also gave a viability, T/C [14] of 42.5%, a viability, T/C [15] of 26% and a viability, T/C [16] of 16.9%. The viability, T/C [17] was 87.7%, the viability, T/C [18] was 77.5% and the viability, T/C [19] was 58.5%. The viability, T/C [20] was 37.2%, the viability, T/C [21] was 23% and the viability, T/C [22] was 15.6%. The viability, T/C [23] was 75.3%, the viability, T/C [24] was 77.1% and the viability, T/C [25] was 59.1%. The viability, T/C [26] was 29%, the viability, T/C [27] was 20.5% and the viability, T/C [28] was 14.9%. The viability, T/C (second compound 3.16 µM, first compound 0.00316 µM) was 79.8%, the viability, T/C (second compound 3.16 µM, first compound 0.01 µM) was 75.6% and the viability, T/C (second compound 3.16 µM, first compound 0.0316 µM) was 56.4%. The viability, T/C (second compound 3.16 µM, first compound 0.1 µM) was 30.5%, the viability, T/C (second compound 3.16 µM, first compound 0.316 µM) was 20.7% and the viability, T/C (second compound 3.16 µM, first compound 1 µM) was 15.6%. For the same molecule, the viability, T/C (second compound 10 µM, first compound 0.00316 µM) was 97.2%, the viability, T/C (second compound 10 µM, first compound 0.01 µM) was 75.1% and the viability, T/C (second compound 10 µM, first compound 0.0316 µM) was 41.8%. It also gave a viability, T/C (second compound 10 µM, first compound 0.1 µM) of 25.4%, a viability, T/C (second compound 10 µM, first compound 0.316 µM) of 17.5% and a viability, T/C (second compound 10 µM, first compound 1 µM) of 12.1%.
In the case of C=CC(=O)Nc1cc(Nc2nccc(-c3cn(C)c4ccccc34)n2)c(OC)cc1N(C)CCN(C)C + C=CC(=O)N1CCN(c2nc(OCC3CCCN3C)nc3c(F)c(-c4nc(N)cc(C)c4C(F)(F)F)c(Cl)cc23)C(C)C1, the IC50 (curve of first compound, second compound 0.00316 µM) is reported as over 1000 nM, the IC50 (curve of first compound, second compound 0.01 µM) is reported as over 1000 nM and the IC50 [1] is reported as over 1000 nM. The IC50 [2] was over 1000 nM, the IC50 [3] was over 1000 nM and the IC50 [4] was over 1000 nM. For the same molecule, the viability, T/C (second compound 0.00316 µM, first compound 0.00316 µM) was 126%, the viability, T/C (second compound 0.00316 µM, first compound 0.01 µM) was 113% and the viability, T/C (second compound 0.00316 µM, first compound 0.0316 µM) was 124%. For the same molecule, the viability, T/C (second compound 0.00316 µM, first compound 0.1 µM) was 102%, the viability, T/C (second compound 0.00316 µM, first compound 0.316 µM) was 112% and the viability, T/C (second compound 0.00316 µM, first compound 1 µM) was 114%. For the same molecule, the viability, T/C (second compound 0.01 µM, first compound 0.00316 µM) was 123%, the viability, T/C (second compound 0.01 µM, first compound 0.01 µM) was 111% and the viability, T/C (second compound 0.01 µM, first compound 0.0316 µM) was 100%. The viability, T/C (second compound 0.01 µM, first compound 0.1 µM) was 106%, the viability, T/C (second compound 0.01 µM, first compound 0.316 µM) was 109% and the viability, T/C (second compound 0.01 µM, first compound 1 µM) was 100%. The viability, T/C [5] was 112%, the viability, T/C [6] was 112% and the viability, T/C [7] was 100%. For the same molecule, the viability, T/C [8] was 124%, the viability, T/C [9] was 114% and the viability, T/C [10] was 96.3%. It also gave a viability, T/C [11] of 118%, a viability, T/C [12] of 107% and a viability, T/C [13] of 136%. It also gave a viability, T/C [14] of 113%, a viability, T/C [15] of 94.7% and a viability, T/C [16] of 120%. The viability, T/C [17] was 122%, the viability, T/C [18] was 107% and the viability, T/C [19] was 110%. It also gave a viability, T/C [20] of 105%, a viability, T/C [21] of 121% and a viability, T/C [22] of 122%. The viability, T/C [23] was 139%, the viability, T/C [24] was 116% and the viability, T/C [25] was 114%. It also gave a viability, T/C [26] of 118%, a viability, T/C [27] of 121% and a viability, T/C [28] of 137%.
For CC(Nc1ccc2c(c1)OCCn1cc(N3C(=O)OCC3C(F)F)nc1-2)C(N)=O (stereo not given), the viability, T/C (compound 0.0316 µM) was 94% [middle of 4 runs], the viability, T/C (compound 0.316 µM) was 85.7% [middle of 4 runs] and the viability, T/C (compound 1 µM) was 87.3% [middle of 4 runs]. The viability, T/C (compound 3.16 µM) was 93.8% [middle of 4 runs], the viability, T/C (compound 10 µM) was 84.6% [middle of 4 runs] and the IC50 (curve of compound) was over 10000 nM.
